Data taken from patent US20220249441A1, “Homodimeric Tobramycin Adjuvant Repurposes Novobiocin as an Effective Antibacterial Agent Against Gram-Negative Bacteria” (priority 2019, published 2022).
Read-outs that look alike come from different tables or passages of the source.

Legend:
P. aeruginosa = test: Checkerboard assay (antibiotic + adjuvant combination MIC); format: cell-based, Pseudomonas aeruginosa; settings: Pseudomonas aeruginosa, read-out: MIC of Novobiocin Alone
MRSA ATCC 33592 = test: MIC and combination against Gram-positive bacteria; format: cell-based; settings: Staphylococcus aureus
Description: (§1) Next, we investigated whether tobramycin by itself would potentiate novobiocin against Gram-negative bacteria.
(§2) Antimicrobial Susceptibility Assay. The in vitro antimicrobial activity of all compounds/antibiotics against a panel of bacteria was evaluated by microbroth dilution method in accordance with the Clinical and Laboratory Standards Institute (CLSI) guidelines (using ATCC strains as quality control strains) (54). Overnight grown bacterial cultures were diluted in saline to achieve a 0.5 McFarland turbidity, followed by 1:50 dilution in Mueller-Hinton broth (MHB) for inoculation to a final concentration of approximately 5×10^5 CFU/mL. […] The lowest concentration that prevented the visible growth of bacteria was defined as the MIC for each antimicrobial agent. The broth with or without bacterial cells was used as positive or negative control, respectively.

E. faecium ATCC 27270 = test: MIC and combination against Gram-positive bacteria; format: cell-based; settings: Enterococcus faecium, ATCC27270
Description: as §1, §2

MRSE 61589 = test: MIC and combination against Gram-positive bacteria; format: cell-based; settings: Staphylococcus epidermidis
Description: as §1, §2

E. cloacae = test: Checkerboard assay (antibiotic + adjuvant combination MIC); format: cell-based, Enterobacter cloacae; settings: Enterobacter cloacae, read-out: MIC of Novobiocin Alone
Description: as §2
(§3) Checkerboard Assay. Combination studies with different antibiotics were performed in 96-well plates as previously described (19). Briefly, the antibiotic of interest was serially diluted in MHB along the abscissa while the adjuvant (tobramycin homodimer) was serially diluted in MHB along the ordinate. This creates a 10×7 matrices wherein each well consists of a combination of different antibiotic and adjuvant concentrations. Overnight grown bacterial cultures were diluted in saline to achieve a 0.5 McFarland turbidity, followed by 1:50 dilution in Mueller-Hinton broth (MHB) for inoculation to a final concentration of approximately 5×10^5 CFU/mL. […] MIC was recorded as wells with the lowest concentration of drugs with no bacterial growth. The fractional inhibitory concentration (FIC) for each antibiotic was calculated by dividing the MIC of the antibiotic in the presence of adjuvant by the MIC of the antibiotic alone. Similarly, the FIC of adjuvant was calculated by dividing the MIC of the adjuvant in the presence of antibiotic by the MIC of the adjuvant alone. FIC index is the sum of both FICs. FIC indices of ≤0.5 were deemed synergistic; >0.5-4, no interaction; and >4, antagonistic.

E. coli = test: as above; format: cell-based, Escherichia coli; settings: Escherichia coli, read-out: MIC of Novobiocin Alone
Description: as §2, §3

A. baumannii ATCC 17978 = test: microbe, parasite or virus in culture; format: cell-based, Acinetobacter baumannii
Description: Development of Resistance Study. […] Tobramycin and colistin were included as controls. At 24-hour intervals, the cultures were assessed for growth. […] This serial passaging was repeated for 8 days.

MDR A. baumannii = test: Galleria mellonella in vivo larvae-infection model; settings: single dose 100 mg/kg, agent alone; after 24 h
Description: Galleria mellonella In vivo Larvae-Infection Model. In vivo synergistic effects were determined using Galleria mellonella infection model, as previously described (49). Briefly, larvae were purchased from The Worm Lady Live Feeder (ON, Canada), stored in their natural habitat at 16° C., and used within 10 days of delivery. The larvae (average weight of 250 mg) were used for tolerability and efficacy studies. Tolerability study was performed by injecting a 10 μL aliquot of antimicrobial agents only at concentrations equivalent to 100 mg/kg or 200 mg/kg. The larvae (ten in each group) were incubated at 37° C. and monitored for 96 h. For efficacy studies, the virulence and bacterial load required to kill 100% of the larvae within 24 h (with no treatment) was first determined, which is approximately 10 CFU. Overnight grown culture of respective MDR A. baumannii isolate was standardized to 0.5 McFarland standard and diluted in PBS to a final concentration of 10^3 CFU/mL. A 10 μL aliquot of this solution (˜10 CFU) was injected into each larva and incubated for 3 h at 37° C. […] Larvae treated with 10 μL of PBS or high concentrations of test antibiotics served as negative and positive control, respectively. The larvae were incubated at 37° C. in Petri dishes lined with filter paper and scored for survivability every 6 h for up to 36 h. […]

A. baumannii = test: Checkerboard assay (antibiotic + adjuvant combination MIC); format: cell-based, Acinetobacter baumannii; settings: Acinetobacter baumannii, read-out: MIC of Novobiocin Alone
Description: as §2, §3

K. pneumoniae 116381 = test: Time-kill assay; format: cell-based, Klebsiella pneumoniae; settings: LB media, novobiocin 32 μg/ml, compound 1 7.1 μM, 24 h
Description: Time-kill Assay. […] At specific time intervals (0, 1, 3, 6, 9, and 24 h), 100 μl was taken from each sample, serially diluted in sterile PBS, plated on LB agar plates, and incubated at 37° C. in a humid 5% CO2-enriched atmosphere. Bacterial colonies were counted after 20 h of incubation.

K. pneumoniae = test: Checkerboard assay (antibiotic + adjuvant combination MIC); format: cell-based, Klebsiella pneumoniae; settings: for MIC: Klebsiella pneumoniae, read-out: MIC of Novobiocin Alone
Description: as §2, §3

CO[C@@H]1[C@@H](OC(N)=O)[C@@H](O)[C@H](Oc2ccc3c(O)c(NC(=O)c4ccc(O)c(CC=C(C)C)c4)c(=O)oc3c2C)OC1(C)C [Novobiocin]
MIC (P. aeruginosa; P. aeruginosa 259-96918): 512 µg/mL | MIC (P. aeruginosa; P. aeruginosa 260-97103): 256 µg/mL | MIC (P. aeruginosa; P. aeruginosa 262-101856): 512 µg/mL | MIC (P. aeruginosa; P. aeruginosa 264-104354): 512 µg/mL | MIC (P. aeruginosa; P. aeruginosa 91433): 16 µg/mL | MIC (P. aeruginosa; P. aeruginosa 100036): 1020 µg/mL | MIC (P. aeruginosa; P. aeruginosa 101243): 128 µg/mL | MIC (P. aeruginosa; P. aeruginosa 101885): 1020 µg/mL | MIC (P. aeruginosa; P. aeruginosa 114228): 512 µg/mL | MIC (P. aeruginosa; PA 91433): 16 µg/mL | MIC (P. aeruginosa; PA 101243): 128 µg/mL | MIC (P. aeruginosa; PA 114228): 512 µg/mL | MIC (P. aeruginosa; PAO1, P. aeruginosa PAO1): 512 µg/mL | MIC (P. aeruginosa; PAO1, PAO1 (wild-type)): 512 µg/mL | MIC (P. aeruginosa; PAO1, PAO1): 512 µg/mL | MIC (P. aeruginosa; PAO200 (efflux-deficient)): 32 µg/mL | MIC (P. aeruginosa; PAO750 (efflux-deficient)): 32 µg/mL | MIC (MRSA ATCC 33592): 0.125 µg/mL | MIC (E. faecium ATCC 27270): 2 µg/mL | MIC (MRSE 61589): 0.0625 µg/mL | MIC (E. cloacae; E. cloacae 117029): 1020 µg/mL | MIC (E. cloacae; E. cloacae 118568): 1020 µg/mL | MIC (E. cloacae; E. cloacae 121187): 64 µg/mL | MIC (E. cloacae; EC 118568): 1020 µg/mL | MIC (E. coli; ATCC25922, E. coli ATCC 25922): 64 µg/mL | MIC (E. coli; E. coli 94393): 128 µg/mL | MIC (E. coli; E. coli 94474): 256 µg/mL | MIC (E. coli; E. coli 107115): 128 µg/mL | fold change in MIC (A. baumannii ATCC 17978; after 3 days of serial passaging): 64 fold | fold change in MIC (A. baumannii ATCC 17978; after 5 days of serial passaging): 256 fold | mortality of infected larvae (MDR A. baumannii): 100% | MIC (A. baumannii; A. baumannii 027): 8 µg/mL | MIC (A. baumannii; A. baumannii 031): 8 µg/mL | MIC (A. baumannii; A. baumannii 92247): 4 µg/mL | MIC (A. baumannii; A. baumannii LAC-4): 8 µg/mL | MIC (A. baumannii; AB 92247): 4 µg/mL | MIC (A. baumannii; ATCC17978, A. baumannii ATCC 17978): 16 µg/mL | MIC (A. baumannii; A. baumannii 110193): 256 µg/mL | time-kill outcome (K. pneumoniae 116381): bacterial growth identical to their respective controls | MIC of Novobiocin Alone (K. pneumoniae): 256 µg/mL | MIC (K. pneumoniae; K. pneumoniae 113250): 512 µg/mL | MIC (K. pneumoniae; K. pneumoniae 113254): 256 µg/mL | MIC (K. pneumoniae; K. pneumoniae 116381): 1020 µg/mL
